The values below are quoted from earlier work in patent US20070098710A1, “Anxiolytic composition comprising essential oil derived from plants as active ingredients, anxiolytic comprising thereof, and a producing method thereof” (NATURE TECHNOLOGY, INC., priority 2004, published 2007).

In one data set the test system is male ICR mice. Conditions: mouse, administered previously.

In the case of `CN1C(=O)CN=C(c2ccccc2)c2cc(Cl)ccc21` [diazepam], the “change of the emotionality (inhibition of looking into hole) by restraint stress” value with male ICR mice was “improved”. Consider `CC1CCC(C(C)C)C(O)C1` (stereo not drawn) [l-menthol, 5-methyl 2-(1-methylethyl)cyclohexanol], for which the solubility in ethanol entry (ethanol) is “soluble in ethanol”. In addition, the solubility in water result (water) is given as “insoluble in water”.
